Measured values reported in US20250163104A1, “MACROCYCLIC IMMUNOMODULATORS” (priority 2021, published 2025).
Where a SMILES comes first, the peptide text is derived from it. Bridges are numbered along the chain shown (N, C = ends). [ ]: non-standard residue; d: D form. The star is where a group is joined. ξ: configuration not given here. Phe(4-COOH) = N[C@@H](Cc1ccc(C(=O)O)cc1)C(=O)O; Bip = N[C@@H](Cc1ccc(-c2ccccc2)cc1)C(=O)O; Phe(3-Me) = Cc1cccc(C[C@H](N)C(=O)O)c1; 1Nal = N[C@@H](Cc1cccc2ccccc12)C(=O)O; Val(3-OH) = CC(C)(O)[C@H](N)C(=O)O; 4Pal = N[C@@H](Cc1ccncc1)C(=O)O; 2Thi = N[C@@H](Cc1cccs1)C(=O)O; Cha = N[C@@H](CC1CCCCC1)C(=O)O; Cit = NC(=O)NCCC[C@H](N)C(=O)O; Ile(3ξ) = CCC(C)[C@H](N)C(=O)O; Thr(3ξ) = CC(O)[C@H](N)C(=O)O; Tle = CC(C)(C)[C@H](N)C(=O)O; Carboxymethyl = O=C(O)C*; Orn = NCCC[C@H](N)C(=O)O; Pra = C#CC[C@H](N)C(=O)O; Dab = NCC[C@H](N)C(=O)O; Dap = NC[C@H](N)C(=O)O

Each molecule was assayed against T1, human PD-1 / PD-L1-Ig binding on Jurkat cell line over-expressing human PD-1 (Jurkat-PD-1) (Homo sapiens, UniProt Q15116) (assay: Jurkat-PD-1 Cell Binding High-Content Screening Assay (CBA)). Settings: Jurkat-PD-1 cells, PE-labeled PD-L1-Ig 20 nM final; read-out: Jurkat HPD1_PDL1 IC50.
T1 construct: expressed in transfected cells; host or cells: Jurkat
T1 sequence (Q15116 25-288): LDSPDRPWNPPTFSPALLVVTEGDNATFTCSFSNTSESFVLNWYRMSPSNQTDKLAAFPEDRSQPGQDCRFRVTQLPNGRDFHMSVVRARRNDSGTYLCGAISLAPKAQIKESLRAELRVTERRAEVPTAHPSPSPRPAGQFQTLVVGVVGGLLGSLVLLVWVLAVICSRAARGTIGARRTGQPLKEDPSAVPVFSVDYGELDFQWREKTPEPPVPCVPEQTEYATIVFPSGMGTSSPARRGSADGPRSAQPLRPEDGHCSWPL
Type: cell-based
Summary of the method: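 Binding of fluorescent PD-L1-Ig (phycoerythrin linked via the Ig tag, 20 nM final) to PD-1-overexpressing Jurkat cells was imaged after a 2 h, 37° C compound pretreatment and 1 hour ligand incubation.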

Row | SMILES | IC50 [nM]
1 | CC(C)C[C@@H]1NC(=O)[C@H](CCN)NC(=O)[C@@H](CC(C)C)NC(=O)[C@H](CN)NC(=O)[C@H](C(C)C)NC(=O)[C@H](Cc2ccc(-c3ccccc3)cc2)NC(=O)[C@H](C(C)C)NC(=O)[C@H](Cc2c[nH]c3ccccc23)NC(=O)[C@H](CC(=O)O)NC(=O)[C@H](Cc2ccc(O)cc2)NC(=O)[C@H](CC(N)=O)NC(=O)CSC[C@@H](C(=O)N[C@@H](C)C(N)=O)NC(=O)[C@H]([C@@H](C)O)NC(=O)[C@H](C(C)C)NC1=O [Compound 1028] ({CH2CO}-NYDWV[Bip]V[Dap][dL][Dab]LVTCA-NH2; thioether N-14) | 14.3
2 | Cc1cccc(C[C@@H]2NC(=O)[C@H](CC(=O)O)NC(=O)[C@H](Cc3ccc(C(=O)O)cc3)NC(=O)[C@H](CCN)NC(=O)CSC[C@@H](C(=O)N[C@@H](CCN)C(N)=O)NC(=O)[C@H](CO)NC(=O)[C@H](C(C)(C)O)NC(=O)[C@H](CC3CCCCC3)NC(=O)[C@H](CCN)NC(=O)[C@@H](CC(C)C)NC(=O)[C@H](CCCN)NC(=O)[C@H](Cc3ccc(C(=O)O)cc3)NC(=O)[C@H](Cc3ccc(-c4ccccc4)cc3)NC(=O)[C@H](Cc3ccc(C(=O)O)cc3)NC2=O)c1 [Example 2709] ({CH2CO}-[Dab][Phe(4-COOH)]D[Phe(3-Me)][Phe(4-COOH)][Bip][Phe(4-COOH)][Orn][dL][Dab][Cha][Val(3-OH)]SC[Dab]-NH2; thioether N-14) | 2.3
3 | C#CC[C@H](NC(=O)[C@H](CCN)NC(=O)[C@@H]1CSCC(=O)N[C@@H](CN)C(=O)N[C@@H](Cc2ccc(C(=O)O)cc2)C(=O)N[C@@H](CC(=O)O)C(=O)N[C@@H](Cc2cccc(C)c2)C(=O)N[C@@H](Cc2ccc(C(=O)O)cc2)C(=O)N[C@@H](Cc2ccc(-c3ccccc3)cc2)C(=O)N[C@@H](Cc2ccc(C(=O)O)cc2)C(=O)N[C@@H](CCCN)C(=O)N[C@H](CC(C)C)C(=O)N[C@@H](CCN)C(=O)N[C@@H](CC2CCCCC2)C(=O)N[C@@H](C(C)(C)O)C(=O)N[C@@H](Cc2cnc[nH]2)C(=O)N1)C(N)=O [Compound 1848] ({CH2CO}-[Dap][Phe(4-COOH)]D[Phe(3-Me)][Phe(4-COOH)][Bip][Phe(4-COOH)][Orn][dL][Dab][Cha][Val(3-OH)]HC[Dab][Pra]-NH2; thioether N-14) | 8.3
4 | CC(C)C[C@H]1NC(=O)[C@H](CCCN)NC(=O)[C@H](CCC(=O)O)NC(=O)[C@H](Cc2ccc(-c3ccccc3)cc2)NC(=O)[C@H](C(C)C)NC(=O)[C@H](Cc2cccs2)NC(=O)[C@H](CC(=O)O)NC(=O)[C@H](Cc2ccncc2)NC(=O)[C@H](CN)NC(=O)CSC[C@@H](C(=O)N[C@@H](C)C(N)=O)NC(=O)[C@H]([C@@H](C)O)NC(=O)[C@H](C(C)C)NC(=O)[C@H](CC2CCCCC2)NC(=O)[C@H](CCN)NC1=O [Compound 2201] ({CH2CO}-[Dap][4Pal]D[2Thi]V[Bip]E[Orn][dL][Dab][Cha]VTCA-NH2; thioether N-14) | 22.5
5 | CC(C)C[C@@H]1NC(=O)[C@H](Cc2c[nH]c3ccccc23)NC(=O)[C@H](CC(=O)O)NC(=O)[C@H](Cc2ccc(O)cc2)NC(=O)[C@H](Cc2ccccc2)NC(=O)CSC[C@@H](C(=O)N[C@@H](C)C(N)=O)NC(=O)[C@H](CO)NC(=O)[C@H](C(C)C)NC(=O)[C@H](CC(C)C)NC(=O)[C@H](CCN)NC(=O)[C@@H](C)NC(=O)[C@H](CCN)NC(=O)[C@H](C(C)C)NC(=O)[C@H](Cc2ccc(-c3ccccc3)cc2)NC1=O [Compound 1104] ({CH2CO}-FYDWL[Bip]V[Dab][dA][Dab]LVSCA-NH2; thioether N-14) | 43.6
6 | CC(C)C[C@H]1NC(=O)[C@H](CCCN)NC(=O)[C@H](C(C)C)NC(=O)[C@H](Cc2ccc(-c3ccccc3)cc2)NC(=O)[C@H](C(C)C)NC(=O)[C@H](Cc2c[nH]c3ccccc23)NC(=O)[C@H](CC(=O)O)NC(=O)[C@H](Cc2ccc(OCC(=O)O)cc2)NC(=O)[C@H](CN)NC(=O)CSC[C@@H](C(=O)N[C@@H](C)C(N)=O)NC(=O)[C@H]([C@@H](C)O)NC(=O)[C@H](C(C)C)NC(=O)[C@H](CC2CCCCC2)NC(=O)[C@H](Cc2cnc[nH]2)NC1=O [Compound 1525] | 15.4
7 | C#CC[C@H](NC(=O)[C@H](CCN)NC(=O)[C@@H]1CSCC(=O)N[C@@H](CCCN)C(=O)N[C@@H](Cc2ccc(C(=O)O)cc2)C(=O)N[C@@H](CC(=O)O)C(=O)N[C@@H](Cc2cccc(C)c2)C(=O)N[C@@H](Cc2ccc(C(=O)O)cc2)C(=O)N[C@@H](Cc2ccc(-c3ccccc3)cc2)C(=O)N[C@@H](Cc2ccc(C(=O)O)cc2)C(=O)N[C@@H](CCCN)C(=O)N[C@H](CC(C)C)C(=O)N[C@@H](CCN)C(=O)N[C@@H](CC2CCCCC2)C(=O)N[C@@H](C(C)(C)O)C(=O)N[C@@H](Cc2cnc[nH]2)C(=O)N1)C(N)=O [Compound 1857] ({CH2CO}-[Orn][Phe(4-COOH)]D[Phe(3-Me)][Phe(4-COOH)][Bip][Phe(4-COOH)][Orn][dL][Dab][Cha][Val(3-OH)]HC[Dab][Pra]-NH2; thioether N-14) | 7.4

Continued, values first:

Row | IC50 [nM] | SMILES
8 | 36.3 | CCC(C)[C@@H]1NC(=O)[C@H](Cc2ccc(-c3ccccc3)cc2)NC(=O)[C@H](C(C)C)NC(=O)[C@H](Cc2cccc(C)c2)NC(=O)[C@H](CC(=O)O)NC(=O)[C@H](Cc2ccc(C(=O)O)cc2)NC(=O)[C@H](Cc2ccncc2)NC(=O)CSC[C@@H](C(N)=O)NC(=O)[C@H]([C@@H](C)O)NC(=O)[C@H](C(C)(C)C)NC(=O)[C@H](CC2CCCCC2)NC(=O)[C@H](CCN)NC(=O)[C@@H](CC(C)C)NC(=O)[C@H](CCCN)NC1=O (stereo partly drawn) [Compound 2274] ({CH2CO}-[4Pal][Phe(4-COOH)]D[Phe(3-Me)]V[Bip][Ile(3ξ)][Orn][dL][Dab][Cha][Tle]TC-NH2; thioether N-14)
9 | 12.3 | Cc1cccc(C[C@@H]2NC(=O)[C@H](CC(=O)O)NC(=O)[C@H](Cc3ccc(OCC(=O)O)cc3)NC(=O)[C@H](Cc3ccncc3)NC(=O)CSC[C@@H](C(=O)N[C@@H](CCN)C(N)=O)NC(=O)[C@H](C(C)O)NC(=O)[C@H](C(C)(C)O)NC(=O)[C@H](CC3CCCCC3)NC(=O)[C@H](CCN)NC(=O)[C@@H](CC(C)C)NC(=O)[C@H](CCCN)NC(=O)[C@H](CCCNC(N)=O)NC(=O)[C@H](Cc3ccc(-c4ccccc4)cc3)NC(=O)[C@H](C(C)C)NC2=O)c1 (stereo partly drawn) [Compound 2630] ({CH2CO}-[4Pal]Y(Carboxymethyl)D[Phe(3-Me)]V[Bip][Cit][Orn][dL][Dab][Cha][Val(3-OH)][Thr(3ξ)]C[Dab]-NH2; thioether N-14)
10 | 10.6 | CC(C)C[C@H]1NC(=O)[C@H](CCCN)NC(=O)[C@H](CCC(=O)O)NC(=O)[C@H](Cc2ccc(-c3ccccc3)cc2)NC(=O)[C@H](C(C)C)NC(=O)[C@H](Cc2cccc3ccccc23)NC(=O)[C@H](CC(=O)O)NC(=O)[C@H](Cc2ccc(OCC(=O)O)cc2)NC(=O)[C@H](CN)NC(=O)CSC[C@@H](C(=O)N[C@@H](C)C(N)=O)NC(=O)[C@H]([C@@H](C)O)NC(=O)[C@H](C(C)C)NC(=O)[C@H](CC2CCCCC2)NC(=O)[C@H](CCN)NC1=O [Compound 2146] ({CH2CO}-[Dap]Y(Carboxymethyl)D[1Nal]V[Bip]E[Orn][dL][Dab][Cha]VTCA-NH2; thioether N-14)
